From PubChem BioAssay AID248 (DTP/NCI, 2004)
Values joined by “and” are separate entries in the source; they are usually repeats but may differ in a detail not shown here. Identical values can stand only once. Toxic doses and inconclusive results are not listed. Cut-off read from the data, not from the text of the source: active = T/C of 150% or more; inactive = T/C below 125%.

Test system: L1210 leukemia ip in BDF1 mice, survival T/C
Assay: NCI In Vivo Anticancer Drug Screen. Data for tumor model L1210 Leukemia (intraperitoneal) in B6D2F1 (BDF1) mice
Details: endpoint: mean survival time, higher = longer survival
Summary of the method: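 Antitumor effect is assessed in tumor-bearing animals. Survival in the compound arm is compared with a vehicle-dosed control arm and expressed as their quotient.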

[1] = dose: 300.0 mg/kg/injection, schedule: Q01DX001 (ip), vehicle: saline
[2] = dose: 100.0 mg/kg/injection, schedule: Q01DX001 (ip), vehicle: saline
[3] = dose: 200.0 mg/kg/injection, schedule: Q01DX001 (ip), vehicle: saline
[4] = dose: 100.0 mg/kg/injection, schedule: Q04DX003 (ip), vehicle: saline with Tween-80
[5] = dose: 200.0 mg/kg/injection, schedule: Q04DX003 (ip), vehicle: saline with Tween-80
[6] = dose: 100.0 mg/kg/injection, schedule: Q04DX003 (ip), vehicle: Klucel (hydroxypropylcellulose) (HPC)
[7] = dose: 200.0 mg/kg/injection, schedule: Q04DX003 (ip), vehicle: Klucel (hydroxypropylcellulose) (HPC)
[8] = dose: 400.0 mg/kg/injection, schedule: Q04DX003 (ip), vehicle: Klucel (hydroxypropylcellulose) (HPC)
[9] = dose: 100.0 mg/kg/injection, schedule: Q01DX001 (ip), vehicle: other
[10] = dose: 200.0 mg/kg/injection, schedule: Q01DX001 (ip), vehicle: other
[11] = dose: 400.0 mg/kg/injection, schedule: Q01DX001 (ip), vehicle: other
[12] = dose: 400.0 mg/kg/injection, schedule: Q04DX003 (ip), vehicle: saline with Tween-80
[13] = dose: 100.0 mg/kg/injection, schedule: Q01DX009 (ip), vehicle: Klucel (hydroxypropylcellulose) (HPC)
[14] = dose: 200.0 mg/kg/injection, schedule: Q01DX009 (ip), vehicle: Klucel (hydroxypropylcellulose) (HPC)
[15] = dose: 400.0 mg/kg/injection, schedule: Q01DX009 (ip), vehicle: Klucel (hydroxypropylcellulose) (HPC)
[16] = dose: 50.0 mg/kg/injection, schedule: Q04DX002 (ip), vehicle: Klucel (hydroxypropylcellulose) (HPC)
[17] = dose: 100.0 mg/kg/injection, schedule: Q04DX002 (ip), vehicle: Klucel (hydroxypropylcellulose) (HPC)
[18] = dose: 100.0 mg/kg/injection, schedule: Q04DX003 (ip), vehicle: saline
[19] = dose: 200.0 mg/kg/injection, schedule: Q04DX003 (ip), vehicle: saline
[20] = dose: 400.0 mg/kg/injection, schedule: Q04DX003 (ip), vehicle: saline

Measured: T/C

Cn1nc(-c2ccccc2)[n+](C)n1
inactive: dose: 75.0 mg/kg/injection, schedule: Q01DX001 (ip), vehicle: saline 104 % of control | dose: 150.0 mg/kg/injection, schedule: Q01DX001 (ip), vehicle: saline 100 % of control | [1] 100 % of control

N#CC1C(=O)NC(=O)C(C#N)C12CCCCC2 (stereo unspecified)
inactive: [2] 106 % of control | dose: 100.0 mg/kg/injection, schedule: Q01DX009 (ip), vehicle: saline with Tween-80 101 % of control | [3] 106 % of control | dose: 200.0 mg/kg/injection, schedule: Q01DX009 (ip), vehicle: saline with Tween-80 97 % of control

O=[N+]([O-])c1ccc2c(c1)c(-c1cccc(-c3ccccc3)c1)nc1ccccc12
inactive: [4] 95 % of control | [5] 88 % of control

O=C1CCC(=O)N1
inactive: [6] 103 % of control | [7] 102 % of control | [8] 100 % of control

CCCCCCCCCCCCCCCCCCNC(=O)Nc1cc(C(C)C)ccc1C
inactive: dose: 100.0 mg/kg/injection, schedule: Q01DX009 (ip), vehicle: other 86 % of control | dose: 200.0 mg/kg/injection, schedule: Q01DX009 (ip), vehicle: other 88 % of control | dose: 400.0 mg/kg/injection, schedule: Q01DX009 (ip), vehicle: other 99 % of control and 100 % of control

CC(C)CC([NH-])C(=O)[O-].O=C(O)C(=O)O.[Co+3].[NH-]CCN(CC[NH-])CC[NH-]
inactive: dose: 50.0 mg/kg/injection, schedule: Q01DX001 (ip), vehicle: other 92 % of control | [9] 100 % of control | [10] 94 % of control | [11] 86 % of control

Cc1c(C)c2c(c(C)c1O)CCC(=O)O2
inactive: [4] 91 % of control | [5] 92 % of control | [12] 94 % of control

O=S(=O)(Nc1ccccc1)c1ccccc1
inactive: [6] 98 % of control | [7] 107 % of control | [8] 98 % of control

CCCCCCc1cc(N=Nc2ccc(S(=O)(=O)Nc3cc(C)nc(C)n3)cc2)c(O)cc1O
inactive: dose: 100.0 mg/kg/injection, schedule: Q01DX001 (ip), vehicle: carboxymethylcellulose (CMC) 101 % of control | dose: 200.0 mg/kg/injection, schedule: Q01DX001 (ip), vehicle: carboxymethylcellulose (CMC) 95 % of control | dose: 400.0 mg/kg/injection, schedule: Q01DX001 (ip), vehicle: carboxymethylcellulose (CMC) 95 % of control

CC(=O)N(C)c1ccc(NC(=O)Nc2cc(C(F)(F)F)ccc2Cl)cc1
inactive: [13] 96 % of control | [14] 94 % of control | [15] 94 % of control

CC(=O)n1cc(CS)c(=O)[nH]c1=O
inactive: [2] 106 % of control

CC(O)[CH2][Sb]([Br])([Br])([c]1ccccc1)[c]1ccccc1 (stereo unspecified)
inactive: dose: 5.0 mg/kg/injection, schedule: Q04DX002 (ip), vehicle: saline with Tween-80 97 % of control | dose: 10.0 mg/kg/injection, schedule: Q04DX002 (ip), vehicle: saline with Tween-80 104 % of control | dose: 20.0 mg/kg/injection, schedule: Q04DX002 (ip), vehicle: saline with Tween-80 104 % of control

CC1(C)N=C(N)N=C(N)N1c1cccc(CCCCOc2ccccc2)c1
inactive: dose: 6.25 mg/kg/injection, schedule: Q04DX003 (ip), vehicle: saline with Tween-80 101 % of control | dose: 12.5 mg/kg/injection, schedule: Q04DX003 (ip), vehicle: saline with Tween-80 106 % of control | dose: 25.0 mg/kg/injection, schedule: Q04DX003 (ip), vehicle: saline with Tween-80 95 % of control

CCCC(F)C(Br)C(=O)O (stereo unspecified)
inactive: dose: 100.0 mg/kg/injection, schedule: Q04DX002 (ip), vehicle: other 90 % of control | dose: 200.0 mg/kg/injection, schedule: Q04DX002 (ip), vehicle: other 90 % of control | dose: 400.0 mg/kg/injection, schedule: Q04DX002 (ip), vehicle: other 90 % of control

CCCCN(CCCC)CC(O)c1cc(Cc2ccccc2)nc2c(Cl)cc(Cl)cc12 (stereo unspecified)
inactive: [4] 89 % of control | [5] 100 % of control | [12] 100 % of control

COP(=O)(NC12CC3CC(CC(C3)C1)C2)OC
inactive: [13] 103 % of control | [6] 97 % of control | [14] 100 % of control | [7] 95 % of control | [15] 101 % of control | [8] 95 % of control

CC1(C)C2CCC(=O)C1C2 (stereo unspecified)
inactive: [4] 101 % of control | [5] 96 % of control | [12] 96 % of control

CC(=O)Nc1ccc(/C=N/N=C(N)N)cc1
inactive: dose: 63.0 mg/kg/injection, schedule: Q01DX Z (ip), vehicle: carboxymethylcellulose (CMC) 88 % of control | dose: 125.0 mg/kg/injection, schedule: Q01DX Z (ip), vehicle: carboxymethylcellulose (CMC) 100 % of control

O=C(Nc1ccccc1)P(=O)(O)c1ccccc1
inactive: dose: 62.5 mg/kg/injection, schedule: Q01DX001 (ip), vehicle: Klucel (hydroxypropylcellulose) (HPC) 102 % of control | dose: 125.0 mg/kg/injection, schedule: Q01DX001 (ip), vehicle: Klucel (hydroxypropylcellulose) (HPC) 102 % of control | dose: 250.0 mg/kg/injection, schedule: Q01DX001 (ip), vehicle: Klucel (hydroxypropylcellulose) (HPC) 92 % of control

CCOC(=O)c1c(N)[nH]c(SSc2[nH]c(N)c(C(=O)OCC)c2C(=O)OCC)c1C(=O)OCC
inactive: [4] 99 % of control | [5] 96 % of control | [12] 89 % of control

CN1c2ccc(Br)c[c]2[Sn]([c]2ccccc2)([c]2ccccc2)[c]2cc(Br)ccc21
inactive: [9] 91 % of control | [10] 96 % of control | [11] 96 % of control

c1ccc(N(c2ccccc2)[Si](c2ccccc2)(c2ccccc2)c2ccccc2)cc1
inactive: dose: 25.6 mg/kg/injection, schedule: Q04DX002 (ip), vehicle: saline with Tween-80 93 % of control | dose: 64.0 mg/kg/injection, schedule: Q04DX002 (ip), vehicle: saline with Tween-80 93 % of control | dose: 160.0 mg/kg/injection, schedule: Q04DX002 (ip), vehicle: saline with Tween-80 97 % of control | dose: 400.0 mg/kg/injection, schedule: Q04DX002 (ip), vehicle: saline with Tween-80 104 % of control

NNC(=O)CNc1ccccc1F
inactive: dose: 25.0 mg/kg/injection, schedule: Q04DX002 (ip), vehicle: Klucel (hydroxypropylcellulose) (HPC) 113 % of control | [16] 102 % of control | [17] 102 % of control and 105 % of control

O=C(Nc1ccc2c(c1)OCO2)N1CC1
inactive: dose: 10.0 mg/kg/injection, schedule: Q01DX009 (ip), vehicle: Klucel (hydroxypropylcellulose) (HPC) 102 % of control | dose: 20.0 mg/kg/injection, schedule: Q01DX009 (ip), vehicle: Klucel (hydroxypropylcellulose) (HPC) 92 % of control | dose: 20.0 mg/kg/injection, schedule: Q04DX003 (ip), vehicle: Klucel (hydroxypropylcellulose) (HPC) 103 % of control | dose: 40.0 mg/kg/injection, schedule: Q04DX003 (ip), vehicle: Klucel (hydroxypropylcellulose) (HPC) 113 % of control

CCCCCCCCCCCCCCCC(=O)N1CCCN(C(=O)CCCCCCCCCCCCCCC)C1
inactive: dose: 30.0 mg/kg/injection, schedule: Q01DX001 (ip), vehicle: saline 93 % of control | [2] 88 % of control | [1] 94 % of control

CC(C)CC(C)(O)C(N)=O (stereo unspecified)
inactive: [18] 102 % of control | [19] 102 % of control | [20] 91 % of control

CC1OC(C)C(Cl)C1Cl (stereo unspecified)
inactive: [16] 110 % of control | [17] 95 % of control | dose: 200.0 mg/kg/injection, schedule: Q04DX002 (ip), vehicle: Klucel (hydroxypropylcellulose) (HPC) 100 % of control

N#Cc1ccc(Cl)c2c1C(=O)c1ccccc1C2=O
inactive: [2] 98 % of control | dose: 100.0 mg/kg/injection, schedule: Q01DX009 (ip), vehicle: saline 100 % of control | [3] 98 % of control | dose: 200.0 mg/kg/injection, schedule: Q01DX009 (ip), vehicle: saline 94 % of control | dose: 400.0 mg/kg/injection, schedule: Q01DX001 (ip), vehicle: saline 95 % of control | dose: 400.0 mg/kg/injection, schedule: Q01DX009 (ip), vehicle: saline 92 % of control

O=C1OC2(c3ccc(O)cc3Oc3cc(O)ccc32)C2C3C=CC(C3)C12 (stereo unspecified)
inactive: dose: 50.0 mg/kg/injection, schedule: Q01DX009 (ip), vehicle: Klucel (hydroxypropylcellulose) (HPC) 98 % of control | [13] 104 % of control | [18] 98 % of control | [14] 97 % of control | [19] 92 % of control | [20] 95 % of control
